From patent US20010049389A1, “Arthropod-controlling composition” (priority 2000, published 2001) come the findings set out here.

Common to all, as to assay type: in vivo
The test system of series [1] is eggs of peach fruit moth (Carposina niponensis). In words: Test Example 20: treated artificial food, peach fruit moth eggs. As to conditions: 1 ml of 500 ppm dilution (Preparation example 2) in 6 g artificial food, after 10 days. The procedure: The formulation obtained in Preparation example 2 was diluted with water to make the concentration of the Pyrone Compound to 500 ppm. One milliliter (1 ml) of the dilution was added to 6 g of artificial food (Insecta LF produced by Nihon Nosankogyo Co.) in plastic cup having 5.5 cm in diameter. About 50 eggs of peach fruit moth (Carposina niponensis) laid on nylon cloth were put into the plastic cup. After 10 days, the ovicidal effect was 90% or more.

Series [2] concerns adult German cockroaches (Blattella germanica). In words: Test Example 3: direct spray of oil solution, knock-down of German cockroaches. As to conditions: 1.5 ml of 0.5% oil solution sprayed directly, one minute after spraying. The procedure: A square of paper (side: 20 cm) was covered on the iron net set on the bottom of the metallic chamber (46 cm×46 cm, 70 cm in height). A container (8.75 cm in diameter, 7.5 cm in height, having 16-mesh net at the bottom and spreading butter on the wall for preventing escape) was set on the paper. In the container, ten (5 males and 5 females) adult German cockroaches (Blattella germanica) were released. By means of spray gun, 1.5 ml of the oil solution obtained in Preparation example 9 was applied to the test insects at a pressure of 0.42 kg/cm^2 from the upper part of the chamber. The container was taken out of the chamber 30 seconds after spraying and the test insects were transferred to a clean plastic cup. One minute after spraying, the knocked-down cockroaches were counted. As a result, the knock-down percentage was 100%. Reference compound was also tested and the knock-down percentage was 42%.

The subject of a further series is adult Porcellio scaber. As to the kind of experiment: Test Example 13: oil-based aerosol spray, Porcellio scaber. As to conditions: about 450 mg of 1.0% oil-based aerosol sprayed, after 3 days. The procedure: According to Preparation examples 10-14, 1.0% oil-based aerosol of the Pyrone Compound was obtained. A container (8.75 cm in diameter, 7.5 cm in height, bottom covered 16-mesh iron net and inside wall painted butter for preventing tested pill bugs to escape) having 5 adult pill bugs (Armadillidium vulgare) therein was set on the bottom center of a glass cylinder having 20 cm in diameter and 60 cm in height. About 450 mg of the above oil-based aerosol were sprayed to the pill bugs from the upper part of the cylinder. After 30 seconds, the pill bugs were taken out and put into a clean plastic cup having soil and dead leaves therein. The pill bugs were given food and water and observed after 3 days. The tests were repeated twice. The mortality was 100%. Reference compound was also tested and the mortality was 40%.
The same procedure was performed as in Test example 12 except that 5 adult Porcellio scaber were used in place of Armadillidium vulgare. As a result, the mortality of the Pyrone Compound was 100%.

For series [3], the system named is centipede (Scolopendra subspinipes mutilans). As to the kind of experiment: Test Example 22: oil-based aerosol spray, centipede. As to conditions: about 1000 mg of 1.0% oil-based aerosol sprayed, after 3 days. The procedure:
According to Preparation examples 10-14, 1.0% oil-based aerosol of the Pyrone Compound was obtained. A container (12.5 cm in diameter, 17.5 cm in height, bottom covered 16-mesh iron net and inside wall painted butter for preventing tested pill bugs to escape) having a centipede (Scolopendra subspinipes mutilans) therein was set on the bottom center of a glass cylinder having 20 cm in diameter and 60 cm in height. About 1000 mg of the above oil-based aerosol were sprayed to the centipede from the upper part of the cylinder. After 30 seconds, the centipede was taken out and put into a clean plastic cup and given food and water. It was observed that the centipede was dead after 3 days.

The test system of series [4] is female adult common mosquitoes (Culex pipiens pallens). In words: Test Example 2: oil solution spray in glass chamber, knock-down of common mosquitoes. As to conditions: 0.7 ml of 0.5% oil solution sprayed in 0.34 m^3 glass chamber, two repetitions. The procedure: Ten (5 males and 5 females) adult houseflies (Musca domestica) were released in a glass chamber (70 cm cube, capacity: 0.34 m^3). Seven-tenth milliliter (0.7 ml) of the oil solution obtained in Preparation example 9 was applied into the chamber with a spray gun at a pressure of 0.9 kg/cm^2. Fifteen minutes after spraying, the knocked-down houseflies were counted. Reference compound was also tested.
The same procedure was performed as in Test example 1 except that ten female adult common mosquitoes (Culex pipiens pallens) in place of houseflies were used. As a result of two repetitions, the knock-down percentage at 15 minutes after spraying was 100%.

Series [5] deals with adult American cockroaches (Periplaneta americana). As to the kind of experiment: Test Example 4: smoking formulation in 28 m^3 chamber, American cockroaches. As to conditions: 10 g smoking (Preparation example 25) in 28 m^3 chamber. The text has this:
In a test chamber of 3 m×4 m and 2.3 m in height (28 m^3), two plastic cups were put at two corners, wherein each cup has ten (5 males and 5 females) adult German cockroaches (Blattella germanica) therein. Ten grams (10 g) of the smoking obtained in Preparation example 25 and 50g of magnesium oxide were charged into each of the cells in an aluminum container having an aluminum wall. The cell charged magnesium oxide has small holes. The aluminum container was dipped into water in the plastic container set in the test chamber. The smoking was heated to release the vaporized active ingredient by the reaction heats of magnesium oxide with water. After 2 hours, knock-down percentage was observed. Further, the cockroaches were transferred to a clean plastic cup and given foods and water. The mortality was observed after 7 days.
Furthermore, the same tests were performed except that six (3 males and 3 females) adult smokybrown cockroaches (Periplaneta fuliginosa) and six (3 males and 3 females) adult American cockroaches (Periplaneta americana) were used in place of ten German cockroaches.

In series [6] the test system is 3-instar larvae of diamondback moth (Plutella xylostella). In words: Test Example 18: treated cabbage leaf disc, feeding damage by diamondback moth. As to conditions: 50 μg on cabbage leaf disc of 1 cm diameter, after 24 hours. The procedure:
A methanol solution (50 μg/20 μl) of the Pyrone Compound was prepared. The solution (20 μl) was painted on a cut leaf disc of cabbage (1 cm in diameter). After vaporizing methanol, the leaf disc was put on a filter paper, which was wet with 1 ml of water, in Petri dish making the painted surface upside. Two 4-instar larvae of tobacco cutworm (Spodoptera litura) were put in the Petri dish. After 24 hours, the damage of the leaf disc was observed and compared with the test result of the non-treated disc. The tests were repeated 5 times.
The same procedure was performed as in Test example 17 except that five 3-instar larvae of diamondback moth (Plutella xylostella) was used in place of tobacco cutworm (Spodoptera litura).

For series [7], the system named is adult American house dust mites (Dermatophagoides farinae). As to the kind of experiment: Test Example 10: treated drawing paper, American house dust mites. As to conditions: drawing paper 800 mg/m^2, 25° C., 65% humidity, 24 hours. The procedure: On a black drawing paper having 38 mm in diameter, 0.2 ml of an acetone solution of the Pyrone Compound was added dropwise and air-dried. The treated dosage was 800 mg/m^2. The drawing paper was set on an aluminum plate having 38 mm in diameter and adhesives were put on the edge to prevent for tested mites to escape. About 30 adult American house dust mites (Dermatophagoides farinae) were released on the drawing paper and kept at 25° C. and 65% of humidity for 24 hours. After that, the mortality was observed. The result was 100%.

The compound `Cc1cc(O)c(C(=O)CC(C)C)c(=O)o1` [The Pyrone Compound] registered an ovicidal effect in series [1] not below 90%. In series [2], the knock-down percentage was found to be 100%. In addition, the mortality (in the series on adult Porcellio scaber; in series [7]) was 100% throughout. Moreover, the “state of the centipede after spraying” value in series [3] was “dead”. For the same compound, the “knock-down percentage at 15 minutes after spraying” value in series [4] amounted to 100%. Also, the “Knock-down percentage (%)” value in series [5] (after 2 hours) was determined as 100%. In addition, in series [5] (after 7 days), the “Mortality (%)” value is 75%. The “damage of the leaf disc compared with the non-treated disc” value in series [6] is listed as “clearly smaller”.
